Values of other authors as cited in patent US4530920A, “Nonapeptide and decapeptide analogs of LHRH, useful as LHRH agonist” (Syntex (U.S.A.) Inc., priority 1983, dated 1985).

Tested on: LHRH activity
Settings: for activity relative to LH-RH: 6-position Gly replaced by a D-amino acid, literature; for potency (times LHRH): relative to LHRH, from Rivier et al. 1975 and Vale et al. 1979

| Substance | activity relative to LH-RH | potency (times LHRH) |
| --- | --- | --- |
| [D Ala^6 ]-LHRH | increased activity relative to LH-RH | – |
| [D-Arg^6 ]LHRH | – | 3.9 times LHRH |
| [D-Arg^6, Pro^9 -NHEt]LHRH | – | 16.7 times LHRH |
| [D-LYS^6]LHRH | – | 3.8 times LHRH |
| [D-Leu^6 ]LHRH | increased activity relative to LH-RH | – |
| [D-Phe^6 ]LHRH | increased activity relative to LH-RH | – |
| [D-Trp^6 ]LHRH | increased activity relative to LH-RH | 36 times LHRH |
| [D-Trp^6, Pro^9 -NHEt]LHRH | – | 144 times LHRH |
